Earlier results in patent US12357592B2, “Compositions and methods for monitoring the treatment of breast disorders” (priority 2018, dated 2025).

System: breast cancer
Conditions: tamoxifen as prevention, given to healthy women; background statement

## CC/C(=C(\c1ccccc1)c1ccc(OCCN(C)C)cc1)c1ccccc1 [Tamoxifen, (Z)-2-[4-(1,2-diphenyl-1-butenyl)phenoxy]-N,N-dimethylethanamine]
  reduce the risk of breast cancer: ≤ 50%
